Experimental data from US20230220021A1, “CYCLIC PEPTIDE INHIBITORS OF PSD-95 AND USES THEREOF” (University of Copenhagen, priority 2020, published 2023).
Where a SMILES comes first, the peptide text is derived from it. [ ]: non-standard residue; d: D form.

Molecular target: T1, PSD-95-PDZ2 (Homo sapiens, UniProt P78352)
T1 construct: 7xHis (N); made in house; host or cells: Escherichia coli B21 pLys (for the mutants, 'as previously described')
Assay: Fluorescence polarization (FP) competition assay against cyclic nNOS TAMRA probe
Type: binding
Conditions: FP competition, cyclic nNOS TAMRA probe; mean of triplicates; N.B. = not binding; read-out: Ki
Description: Fluorescence polarization (FP). FP assays were performed in a 384-well plate format. Fluorescence polarization was measured using a Safire 2 plate reader. The instrument Z-factor was optimized for each assay. The G-factor was calibrated to an initial milli polarization value of 20. The wavelength for the cyclic nNOS β-hairpin TAMRA probe was: ex: 530 nm and em: 580 nm. Every measurement was performed in NaPI 50 mM, 50 mM NaCl and 1% BSA at pH 7.2, 25° C. […] The curves were done in triplicates. Then, the polarization was fitted into a one-site binding model using Prism software 8.0 (GraphPad), from which the Kd can be measured. […] The mili polarization (mP) values were plotted as a function of peptide concentration and fitted to a sigmoidal dose-response curve using Prism software 8.0 (GraphPad). The Ki values were calculated according to Nikolovska-Coleska Z. et al.^40-41

T1 sequence (P78352 160-246 limits assumed): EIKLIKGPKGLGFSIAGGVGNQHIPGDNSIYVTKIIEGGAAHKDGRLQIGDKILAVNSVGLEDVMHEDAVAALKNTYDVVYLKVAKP

Row | Ki | Compound
1 | 11.5 µM | CC[C@H](C)[C@@H]1NC(=O)[C@H]([C@@H](C)O)NC(=O)[C@H](CCCCN)NC(=O)[C@@H]2CCCN2C(=O)[C@H]([C@@H](C)O)NC(=O)CNC(=O)[C@H](CC(=O)O)NC(=O)CNC(=O)[C@H]([C@@H](C)O)NC(=O)[C@H](Cc2ccccc2)NC(=O)[C@H](CCC(=O)O)NC(=O)[C@H]([C@@H](C)O)NC(=O)[C@H](CCC(=O)O)NC(=O)[C@H](CC(C)C)NC(=O)[C@H](Cc2c[nH]cn2)NC(=O)[C@H]([C@@H](C)O)NC(=O)[C@H](CCC(N)=O)NC(=O)CNC(=O)[C@H]2CCCN2C(=O)[C@H](CCC(N)=O)NC(=O)[C@H]([C@@H](C)O)NC(=O)[C@H](C(C)C)NC(=O)[C@H](CCCNC(=N)N)NC1=O [compound 53] (cyclo(THLETEFTGDGTPKTIRVTQ[dP]GQ))
2 | 1.43 µM | CC[C@H](C)[C@@H]1NC(=O)[C@H]([C@@H](C)O)NC(=O)[C@H](CCCCN)NC(=O)[C@@H]2CCCN2C(=O)CNC(=O)[C@H](CC(=O)O)NC(=O)CNC(=O)[C@H]([C@@H](C)O)NC(=O)[C@H](Cc2ccccc2)NC(=O)[C@H]([C@@H](C)O)NC(=O)[C@H]([C@@H](C)O)NC(=O)[C@H](CCC(=O)O)NC(=O)[C@H](CC(C)C)NC(=O)[C@H](Cc2c[nH]cn2)NC(=O)[C@H]([C@@H](C)O)NC(=O)[C@H](CCC(N)=O)NC(=O)CNC(=O)[C@H]2CCCN2C(=O)[C@H](CCC(N)=O)NC(=O)[C@H]([C@@H](C)O)NC(=O)[C@H](C(C)C)NC(=O)[C@H](CCCNC(=N)N)NC1=O [compound 77] (cyclo(THLETTFTGDGPKTIRVTQ[dP]GQ))
3 | 4.8 µM | CC[C@H](C)[C@@H]1NC(=O)[C@H]([C@@H](C)O)NC(=O)[C@H](CCCCN)NC(=O)[C@@H]2CCCN2C(=O)[C@H]([C@@H](C)O)NC(=O)CNC(=O)[C@H](CC(=O)O)NC(=O)CNC(=O)[C@H]([C@@H](C)O)NC(=O)[C@H](Cc2ccccc2)NC(=O)[C@H]([C@@H](C)O)NC(=O)[C@H]([C@@H](C)O)NC(=O)[C@H](CCC(=O)O)NC(=O)[C@H](CC(C)C)NC(=O)[C@H](Cc2c[nH]cn2)NC(=O)[C@H]([C@@H](C)O)N(C)C(=O)[C@H](CCC(N)=O)NC(=O)CNC(=O)[C@H]2CCCN2C(=O)[C@H](CCC(N)=O)NC(=O)[C@H]([C@@H](C)O)NC(=O)[C@H](C(C)C)NC(=O)[C@H](CCCNC(=N)N)NC1=O [compound 84]
4 | 1.47 µM | CC[C@H](C)[C@@H]1NC(=O)[C@H]([C@@H](C)O)NC(=O)[C@H](CCCCN)NC(=O)[C@@H]2CCCN2C(=O)[C@H]([C@@H](C)O)NC(=O)CNC(=O)[C@H](CC(=O)O)NC(=O)CNC(=O)[C@H]([C@@H](C)O)NC(=O)[C@H](Cc2ccccc2)NC(=O)[C@H]([C@@H](C)O)N(C)C(=O)[C@H]([C@@H](C)O)NC(=O)[C@H](CCC(=O)O)NC(=O)[C@H](CC(C)C)NC(=O)[C@H](Cc2c[nH]cn2)NC(=O)[C@H]([C@@H](C)O)NC(=O)[C@H](CCC(N)=O)NC(=O)CNC(=O)[C@H]2CCCN2C(=O)[C@H](CCC(N)=O)NC(=O)[C@H]([C@@H](C)O)NC(=O)[C@H](C(C)C)NC(=O)[C@H](CCCNC(=N)N)NC1=O [compound 89]
5 | 6.19 µM | CC[C@H](C)[C@@H]1NC(=O)[C@H]([C@@H](C)O)NC(=O)[C@H](CCCCN)NC(=O)[C@@H]2CCCN2C(=O)[C@H]([C@@H](C)O)NC(=O)CNC(=O)[C@H](CC(=O)O)NC(=O)CN(C)C(=O)[C@H]([C@@H](C)O)NC(=O)[C@H](Cc2ccccc2)NC(=O)[C@H]([C@@H](C)O)NC(=O)[C@H]([C@@H](C)O)NC(=O)[C@H](CCC(=O)O)NC(=O)[C@H](CC(C)C)NC(=O)[C@H](Cc2c[nH]cn2)NC(=O)[C@H]([C@@H](C)O)NC(=O)[C@H](CCC(N)=O)NC(=O)CNC(=O)[C@H]2CCCN2C(=O)[C@H](CCC(N)=O)NC(=O)[C@H]([C@@H](C)O)NC(=O)[C@H](C(C)C)NC(=O)[C@H](CCCNC(=N)N)NC1=O [compound 92]

Same assay, conditions: FP inhibition constant normalized to WT value

Row | Relative Ki (Ki mut/Ki WT) | Compound
6 | 1.06 | CC[C@H](C)[C@@H]1NC(=O)[C@H]([C@@H](C)O)NC(=O)[C@H](CCCCN)NC(=O)[C@@H]2CCCN2C(=O)[C@H]([C@@H](C)O)NC(=O)CNC(=O)[C@H](CC(=O)O)NC(=O)CNC(=O)[C@H]([C@@H](C)O)NC(=O)[C@H](Cc2ccccc2)NC(=O)[C@H]([C@@H](C)O)NC(=O)[C@H]([C@@H](C)O)NC(=O)[C@H](CCC(=O)O)NC(=O)[C@H](CC(C)C)NC(=O)[C@H](Cc2c[nH]cn2)NC(=O)[C@H]([C@@H](C)O)NC(=O)[C@H](CCC(N)=O)NC(=O)CNC(=O)[C@H]2CCCN2C(=O)[C@H](CCC(N)=O)NC(=O)[C@H](CCCNC(=N)N)NC(=O)[C@H](C(C)C)NC(=O)[C@H](CCCNC(=N)N)NC1=O [compound 44] (cyclo(THLETTFTGDGTPKTIRVRQ[dP]GQ))
7 | 0.89 | CC[C@H](C)[C@@H]1NC(=O)[C@H]([C@@H](C)O)NC(=O)[C@H](CCCCN)NC(=O)[C@@H]2CCCN2C(=O)[C@H]([C@@H](C)O)NC(=O)CNC(=O)[C@H](CC(=O)O)NC(=O)CNC(=O)[C@H]([C@@H](C)O)NC(=O)[C@H](Cc2ccccc2)NC(=O)[C@H]([C@@H](C)O)NC(=O)[C@H]([C@@H](C)O)NC(=O)[C@H](CCC(=O)O)NC(=O)[C@H](CC(C)C)NC(=O)[C@H](Cc2c[nH]cn2)NC(=O)[C@H]([C@@H](C)O)NC(=O)[C@H](CCC(N)=O)NC(=O)CNC(=O)[C@H]2CCCN2C(=O)[C@H](CCC(N)=O)NC(=O)[C@H]([C@@H](C)O)NC(=O)[C@H](Cc2ccccc2)NC(=O)[C@H](CCCNC(=N)N)NC1=O [compound 46] (cyclo(THLETTFTGDGTPKTIRFTQ[dP]GQ))
8 | 0.85 | CC[C@H](C)[C@@H]1NC(=O)[C@H]([C@@H](C)O)NC(=O)[C@H](CCCCN)NC(=O)[C@@H]2CCCN2C(=O)[C@H]([C@@H](C)O)NC(=O)CNC(=O)[C@H](CC(=O)O)NC(=O)CNC(=O)[C@H]([C@@H](C)O)NC(=O)[C@H](Cc2ccccc2)NC(=O)[C@H]([C@@H](C)O)NC(=O)[C@H]([C@@H](C)O)NC(=O)[C@H](CCC(=O)O)NC(=O)[C@H](CC(C)C)NC(=O)[C@H](Cc2c[nH]cn2)NC(=O)[C@H]([C@@H](C)O)NC(=O)[C@H](CCC(N)=O)NC(=O)CNC(=O)[C@H]2CCCN2C(=O)[C@H](CCC(N)=O)NC(=O)[C@H]([C@@H](C)O)NC(=O)[C@H](Cc2ccc(O)cc2)NC(=O)[C@H](CCCNC(=N)N)NC1=O [compound 47] (cyclo(THLETTFTGDGTPKTIRYTQ[dP]GQ))
9 | 1.05 | CC[C@H](C)[C@@H]1NC(=O)[C@H]([C@@H](C)O)NC(=O)[C@H](CCCCN)NC(=O)[C@@H]2CCCN2C(=O)[C@H]([C@@H](C)O)NC(=O)CNC(=O)[C@H](CC(=O)O)NC(=O)CNC(=O)[C@H]([C@@H](C)O)NC(=O)[C@H](Cc2ccccc2)NC(=O)[C@H]([C@@H](C)O)NC(=O)[C@H]([C@@H](C)O)NC(=O)[C@H](CCC(=O)O)NC(=O)[C@H](CC(C)C)NC(=O)[C@H](Cc2c[nH]cn2)NC(=O)[C@H]([C@@H](C)O)NC(=O)[C@H](CCC(N)=O)NC(=O)CNC(=O)[C@H]2CCCN2C(=O)[C@H](CCC(N)=O)NC(=O)[C@H](Cc2ccccc2)NC(=O)[C@H](C(C)C)NC(=O)[C@H](CCCNC(=N)N)NC1=O [compound 48] (cyclo(THLETTFTGDGTPKTIRVFQ[dP]GQ))
10 | 1.25 | CC[C@H](C)[C@@H]1NC(=O)[C@H]([C@@H](C)O)NC(=O)[C@H](CCCCN)NC(=O)[C@@H]2CCCN2C(=O)[C@H]([C@@H](C)O)NC(=O)CNC(=O)[C@H](CC(=O)O)NC(=O)CNC(=O)[C@H]([C@@H](C)O)NC(=O)[C@H](Cc2ccccc2)NC(=O)[C@H]([C@@H](C)O)NC(=O)[C@H]([C@@H](C)O)NC(=O)[C@H](CCC(=O)O)NC(=O)[C@H](CC(C)C)NC(=O)[C@H](Cc2c[nH]cn2)NC(=O)[C@H]([C@@H](C)O)NC(=O)[C@H](CCC(N)=O)NC(=O)CNC(=O)[C@H]2CCCN2C(=O)[C@H](CCC(N)=O)NC(=O)[C@H](Cc2ccc(O)cc2)NC(=O)[C@H](C(C)C)NC(=O)[C@H](CCCNC(=N)N)NC1=O [compound 49] (cyclo(THLETTFTGDGTPKTIRVYQ[dP]GQ))
11 | 4.79 | CC[C@H](C)[C@@H]1NC(=O)[C@H](CO)NC(=O)[C@H](CCCCN)NC(=O)[C@@H]2CCCN2C(=O)[C@H]([C@@H](C)O)NC(=O)CNC(=O)[C@H](CC(=O)O)NC(=O)CNC(=O)[C@H]([C@@H](C)O)NC(=O)[C@H](Cc2ccccc2)NC(=O)[C@H]([C@@H](C)O)NC(=O)[C@H]([C@@H](C)O)NC(=O)[C@H](CCC(=O)O)NC(=O)[C@H](CC(C)C)NC(=O)[C@H](Cc2c[nH]cn2)NC(=O)[C@H]([C@@H](C)O)NC(=O)[C@H](CCC(N)=O)NC(=O)CNC(=O)[C@H]2CCCN2C(=O)[C@H](CCC(N)=O)NC(=O)[C@H]([C@@H](C)O)NC(=O)[C@H](C(C)C)NC(=O)[C@H](CCCNC(=N)N)NC1=O [compound 50] (cyclo(THLETTFTGDGTPKSIRVTQ[dP]GQ))
12 | 2.51 | CC[C@H](C)[C@@H]1NC(=O)[C@H]([C@@H](C)O)NC(=O)[C@H](CCCCN)NC(=O)[C@@H]2CCCN2C(=O)[C@H]([C@@H](C)O)NC(=O)CNC(=O)[C@H](CC(=O)O)NC(=O)CNC(=O)[C@H]([C@@H](C)O)NC(=O)[C@H](Cc2ccccc2)NC(=O)[C@H]([C@@H](C)O)NC(=O)[C@H](CO)NC(=O)[C@H](CCC(=O)O)NC(=O)[C@H](CC(C)C)NC(=O)[C@H](Cc2c[nH]cn2)NC(=O)[C@H]([C@@H](C)O)NC(=O)[C@H](CCC(N)=O)NC(=O)CNC(=O)[C@H]2CCCN2C(=O)[C@H](CCC(N)=O)NC(=O)[C@H]([C@@H](C)O)NC(=O)[C@H](C(C)C)NC(=O)[C@H](CCCNC(=N)N)NC1=O [compound 52] (cyclo(THLESTFTGDGTPKTIRVTQ[dP]GQ))
13 | 0.34 | CC[C@H](C)[C@@H]1NC(=O)[C@H]([C@@H](C)O)NC(=O)[C@H](CCCCN)NC(=O)[C@@H]2CCCN2C(=O)[C@H]([C@@H](C)O)NC(=O)CNC(=O)[C@H](CC(=O)O)NC(=O)CNC(=O)[C@H]([C@@H](C)O)NC(=O)[C@H](Cc2ccccc2)NC(=O)[C@H](CCC(=O)O)NC(=O)[C@H]([C@@H](C)O)NC(=O)[C@H](CCC(=O)O)NC(=O)[C@H](CC(C)C)NC(=O)[C@H](Cc2c[nH]cn2)NC(=O)[C@H]([C@@H](C)O)NC(=O)[C@H](CCC(N)=O)NC(=O)CNC(=O)[C@H]2CCCN2C(=O)[C@H](CCC(N)=O)NC(=O)[C@H]([C@@H](C)O)NC(=O)[C@H](C(C)C)NC(=O)[C@H](CCCNC(=N)N)NC1=O [compound 53] (cyclo(THLETEFTGDGTPKTIRVTQ[dP]GQ))
14 | 2.36 | CC[C@H](C)[C@@H]1NC(=O)[C@H]([C@@H](C)O)NC(=O)[C@H](CCCCN)NC(=O)[C@@H]2CCCN2C(=O)[C@H]([C@@H](C)O)NC(=O)CNC(=O)[C@H](CC(=O)O)NC(=O)CNC(=O)[C@H]([C@@H](C)O)NC(=O)[C@H](Cc2ccccc2)NC(=O)[C@H]([C@@H](C)O)NC(=O)[C@H]([C@@H](C)O)NC(=O)[C@H](CCC(=O)O)NC(=O)[C@H](C)NC(=O)[C@H](Cc2c[nH]cn2)NC(=O)[C@H]([C@@H](C)O)NC(=O)[C@H](CCC(N)=O)NC(=O)CNC(=O)[C@H]2CCCN2C(=O)[C@H](CCC(N)=O)NC(=O)[C@H]([C@@H](C)O)NC(=O)[C@H](C(C)C)NC(=O)[C@H](CCCNC(=N)N)NC1=O [compound 57] (cyclo(THAETTFTGDGTPKTIRVTQ[dP]GQ))
